# In ChEMBL document CHEMBL1155399, “Novel glitazones: design, synthesis, glucose uptake and structure-activity relationships” (Bioorg Med Chem Lett, 2010):
# Assays:
# [1] = Antidiabetic activity in Wistar rat hemidiaphragm assessed as glucose uptake at 2 mg after 45 mins by GOD/POD enzymatic method in presence of insulin; conditions: Diaphragm
# [2] = Antidiabetic activity in Wistar rat hemidiaphragm assessed as glucose uptake at 2 mg after 45 mins by GOD/POD enzymatic method in absence of insulin; conditions: Diaphragm
SMILES,Activity [1] [mg/g],Activity [2] [mg/g]
COc1ccc(NC(=O)COc2ccc(/C=C3/SC(=O)NC3=O)cc2OC)cc1,36.2,10.8
COc1ccc(NC(=O)COc2ccc(CC3SC(=S)NC3=O)cc2OC)cc1 (configuration not stated),28.2,9.5
COc1cc(/C=C2/SC(=O)NC2=O)ccc1OCC(=O)NC1CCCCC1,27.2,9.5
COc1cc(/C=C2/SC(=O)NC2=O)ccc1OCC(=O)Nc1ccccc1C(N)=O,29,10
COc1cc(/C=C2/SC(=S)NC2=O)ccc1OCC(=O)NCc1ccccc1,26.8,10.2
CN(CCOc1ccc(CC2SC(=O)NC2=O)cc1)c1ccccn1 (configuration not stated),35.2,11.2
COc1cc(/C=C2/SC(=O)NC2=O)ccc1OCC(=O)Nc1ccccc1,28.5,12
COc1cc(/C=C2/SC(=O)NC2=O)ccc1OCC(=O)NCc1ccccc1,31.8,10.5
COc1ccc(NC(=O)COc2ccc(/C=C3/SC(=S)NC3=O)cc2OC)cc1,33.5,9.75
COc1cc(/C=C2/SC(=S)NC2=O)ccc1OCC(=O)Nc1ccccc1[N+](=O)[O-],25.5,9
COc1ccc(NC(=O)COc2ccc(CC3SC(=O)NC3=O)cc2OC)cc1 (configuration not stated),30.2,11.2
COc1cc(/C=C2/SC(=O)NC2=O)ccc1OCC(=O)Nc1ccccn1,32,12.2
COc1cc(/C=C2/SC(=S)NC2=O)ccc1OCC(=O)Nc1ccccn1,30,9.75
COc1cc(/C=C2/SC(=S)NC2=O)ccc1OCC(=O)Nc1ccccc1,24.8,8
COc1cc(/C=C2/SC(=O)NC2=O)ccc1OCC(=O)Nc1ccccc1[N+](=O)[O-],26.2,9.75
COc1cc(/C=C2/SC(=S)NC2=O)ccc1OCC(=O)NC1CCCCC1,30,11.8
